From patent US10858360B2, “Tricyclic gyrase inhibitors” (priority 2011, dated 2020)
Converted amounts (≈) assume the structure as drawn. Like-named read-outs stand apart in the source and are kept apart here.

How the values were obtained:
S. aureus ATCC 13709 = assay: MIC, S. aureus ATCC 13709 (Alamar Blue broth microdilution); assay type: cell-based; details: for MIC: Staphylococcus aureus, ATCC13709, S. aureus
E. coli ATCC 25922 = assay: MIC, E. coli ATCC 25922; assay type: cell-based; details: for MIC: Escherichia coli, ATCC25922, E. coli
[1] = S. aureus, Alamar Blue read after overnight incubation at 35° C.
[2] = E. coli, Alamar Blue read after overnight incubation at 35° C.
[3] = Alamar Blue read after overnight incubation at 35° C.

SMILES	MIC Sa (S. aureus ATCC 13709; [1]) [µg/mL]	MIC Ec (E. coli ATCC 25922; [2]) [µg/mL]	MIC (S. aureus ATCC 13709; [3]) [µg/mL]	MIC (E. coli ATCC 25922; [3]) [µg/mL]	further results
CNc1cc(F)cc2c1[nH]c1nc(Oc3cnc(C)nc3)nc(N3CC4CCC(N)CC4C3)c12 (stereo not shown) [4.093]	≤0.5	4 (≈ 8.65 µM)	–	–	–
CNc1cc(F)cc2c1[nH]c1nc(Oc3cnc(C)nc3)nc(N3CC4CCC(N)C4C3)c12 (stereo not shown) [4.075]	≤0.5	≤0.5	–	–	–
CNc1cc(F)cc2c1[nH]c1nc(Oc3cnc(C)nc3)nc(N3CC4(CC(N)C4)C3)c12 [4.153]	≤0.5	2 (≈ 4.6 µM)	–	–	–
CNc1ncnc2c1[nH]c1nc(Oc3cnc(C)nc3)nc(N3CCC(CN)C3)c12 (stereo not shown) [7.12]	–	–	> 64	> 64	–
Cc1ncc(Oc2nc(N3C[C@H](N)C4(CC4)C3)c3c(n2)[nH]c2c(N(C)C(=O)CN)cc(F)cc23)cn1 [4.426]	–	–	8 (≈ 16.3 µM)	> 16	–
CNc1cccc2c1[nH]c1nc(Sc3cnc4cccnc4c3)nc(N3CC4CNC(C4)C3)c12 (stereo not shown) [1.47]	–	–	≤ 0.5	2 (≈ 4.27 µM)	–
CNc1cc(F)cc2c1[nH]c1nc(Oc3cnc(C)nc3)nc(-c3cn[nH]c3)c12 [4.418]	–	–	≤ 0.5	1 (≈ 2.56 µM)	–
CNc1cc(C(F)(F)F)cc2c1[nH]c1nc(Oc3cnc(C)nc3)nc(N3CC4C(N)C4C3)c12 (stereo not shown) [6.10]	–	–	–	–	MIC Sa (S. aureus ATCC 13709): ≤0.5 µg/mL; MIC Ec (E. coli ATCC 25922): ≤0.5 µg/mL
CNc1cc(F)cc2c1[nH]c1nc(Oc3cnc(C)nc3)nc(N3CC4CC(N)CC4C3)c12 (stereo not shown) [4.104]	≤0.5	≤0.5	–	–	–
CNc1cc(F)cc2c1[nH]c1nc(Oc3cncc(OC)c3)nc(N3CC4C(N)C4C3)c12 (stereo not shown) [4.164]	–	–	≤ 0.5	1 (≈ 2.3 µM)	–
CNc1cc(F)cc2c1[nH]c1nc(Oc3cnc(N4CCOCC4)nc3)nc(N3CCC(CN)C3)c12 (stereo not shown) [4.215]	–	–	≤ 0.5	4 (≈ 8.1 µM)	–
CNc1cc(F)cc2c1[nH]c1nc(Oc3cnc(C)nc3)nc(N3CCC(C4(N)CC4)C3)c12 (stereo not shown) [4.083]	≤0.5	≤0.5	–	–	–
CNc1cccc2c1[nH]c1nc(Sc3cncc(S(=O)(=O)N(C)C)c3)nc(N3CC4C(N)C4C3)c12 (stereo not shown) [1.22]	–	–	1 (≈ 1.96 µM)	8 (≈ 15.7 µM)	–
CNc1cc(C)cc2c1[nH]c1nc(Oc3cncnc3)nc(N3CC4C(N)C4C3)c12 (stereo not shown) [6.27]	–	–	–	–	MIC Sa (S. aureus ATCC 13709): ≤0.5 µg/mL; MIC Ec (E. coli ATCC 25922): 1 µg/mL (≈ 2.48 µM)
CNc1cc(F)cc2c1[nH]c1nc(Oc3cnc(N)nc3)nc(N3CCC(N)C3)c12 (stereo not shown) [4.179]	≤0.5	1 (≈ 2.44 µM)	–	–	–
CNc1cc(F)cc2c1[nH]c1nc(Oc3cncc(Cl)c3)nc(N3CC4C[C@@H](N)C4C3)c12 (stereo partly shown) [4.274]	–	–	≤ 0.5	≤ 0.5	–

SMILES	MIC Sa (S. aureus ATCC 13709; [1]) [µg/mL]	MIC Ec (E. coli ATCC 25922; [2]) [µg/mL]	MIC (S. aureus ATCC 13709; [3]) [µg/mL]	MIC (E. coli ATCC 25922; [3]) [µg/mL]	further results
CNc1cc(F)cc2c1[nH]c1nc(Oc3cnc(N)nc3)nc(N3CC4C[C@@H](N)C4C3)c12 (stereo partly shown) [4.190]	–	–	≤ 0.5	1 (≈ 2.3 µM)	–
CNc1cc(F)c(F)c2c1[nH]c1nc(Oc3cnc(C)nc3)nc(N3CC(N)C3)c12 [5.06]	≤0.5	≤0.5	–	–	–
Cc1ncc(Oc2nc(N3CC4CC3C[C@@H]4N)c3c(n2)[nH]c2c(N)cc(F)cc23)cn1 (stereo partly shown) [2.160]	–	–	8 (≈ 19 µM)	16 (≈ 38.1 µM)	–
CNc1cc(F)cc2c1[nH]c1nc(Oc3cnc(N4CCOCC4)nc3)nc(N3CCC(N)C3)c12 (stereo not shown) [4.212]	≤0.5	≤0.5	–	–	–
CNc1cc(F)cc2c1[nH]c1nc(Oc3cnc(N4CC(C)(N)C4)nc3)nc(N3CC4C(N)C4C3)c12 (stereo not shown) [4.339]	≤0.5	1 (≈ 2.04 µM)	–	–	–
CNc1cc(F)cc2c1[nH]c1nc(Oc3cnc(C)nc3)nc(N3CC(N4CC(N)C4)C3)c12 [4.158]	≤0.5	4 (≈ 8.9 µM)	–	–	–
CNc1cccc2c1[nH]c1nc(Sc3cnc4cccnc4c3)nc(N3C[C@H](N)C[C@H]3C)c12 [1.61]	–	–	8 (≈ 17.5 µM)	64 (≈ 140 µM)	–
CNc1cc(F)cc2c1[nH]c1nc(Oc3cnc(N4CCOCC4)nc3)nc(N3CC4C(N)C4C3)c12 (stereo not shown) [4.211]	16 (≈ 32.6 µM)	>16	–	–	–
CNc1cc(F)cc2c1[nH]c1nc(Oc3cnc(N)nc3)nc(N3C[C@H]4CCN[C@H]4C3)c12 [4.187]	–	–	≤ 0.5	2 (≈ 4.59 µM)	–
CNc1cc(F)cc2c1[nH]c1nc(Oc3cnc(C)nc3)nc(N3CC4CCCC(N)C4C3)c12 (stereo not shown) [4.086]	≤0.5	2 (≈ 4.32 µM)	–	–	–
CNc1cc(F)cc2c1[nH]c1nc(Oc3cnc4[nH]cnc4c3)nc(N3CC4CC(N)C4C3)c12 (stereo not shown) [4.310]	–	–	8 (≈ 17.4 µM)	> 16	–
CNc1cc(F)cc2c1[nH]c1nc(Oc3cnc(N(C)C)nc3)nc(N3CC4C(N)C4C3)c12 (stereo not shown) [4.208]	–	–	≤ 0.5	≤ 0.5	–
CNc1cc(F)cc2c1[nH]c1nc(Oc3cnc(C(C)C)nc3)nc(N3CC4C(N)C4C3)c12 (stereo not shown) [4.232]	≤0.5	≤0.5	–	–	–
CNc1cc(F)cc2c1[nH]c1nc(Oc3cnc(C(C)C)nc3)nc(N3CCC4(CC4N)C3)c12 (stereo not shown) [4.235]	–	–	≤ 0.5	≤ 0.5	–
CNc1cc(F)cc2c1[nH]c1nc(Oc3cnc(C)nc3)nc(N3CC4CC3CC4N)c12 (stereo not shown) [4.130]	≤0.5	≤0.5	–	–	–
CNc1cc(F)c(F)c2c1[nH]c1nc(Oc3cnc(C)nc3)nc(N3CCC4(CC4N)C3)c12 (stereo not shown) [5.02]	≤0.5	≤0.5	–	–	–
